Reference: patent US20030224446A1, “Method of predicting cytokine response to tissue injury” (priority 2001, published 2003)
“Also recorded” adds a separate entry of the source.

Legend:
[1] = test system: hippocampal dentate granule cells; experiment: Hematoxylin and eosin staining of hippocampus 24 h after TMT; format: in vivo, mice
Description: (§1) Food and water were available ad libitum.
(§2) Based upon previous studies with TMT exposure (Bruccoleri et al., 1998, 1999), a minimum of six mice per group were examined for morphological changes in the hippocampus 24 h following injection. Animals were lightly anesthetized with CO2 and decapitated and brains were removed from the cranium, bisected in the midsagittal plane, and immersion-fixed in 4% paragormaldehyde/0.1 M phosphate-buffered saline (PBS; pH 7.2) overnight at room temperature. Eight-micron paraffin-embedded sections were stained by routine hematoxylin and eosin (H&E) to visualize tissue cellularity. Astrocytes were identified by immunohistochemistry using polyclonal glial fibrillary acidic protein (GFAP) antibodies (Dako Corp., Carpinteria, Calif.). Briefly, rehydrated sections were treated with 3% H2O2, subjected to heat-induced epitope retrieval (HIER) using a decloaking chamber (Biocare Medical, Walnut Creek, Calif.), and incubated with nonimmune goat serum (1.5:100 dilution in 1% BSA/PBS) prior to incubation with rabbit anti-rat GFAP (1:2000 in 1:1 solution of 1% BSA and 1% powered milk in PBS). Sections were incubated with a secondary IgG antibody followed by ABC (avidin-biotin complex) reagent (Vectastain Elite, Vector Laboratories, Burlingame, Calif.) and detected by 3,3′-diaminobenzidine tetrahydrochloride (DAB) substrate (Sigma-Aldrich Research, St. Louis, Mo.). Microglia cells were identified by lectin binding (Bandeiraea Simplicifolia BS-4, 1:10; Sigma Chemical Co.; St. Louis, Mo.) by the method of Streit and Kreutzberg (1987) using HIER. Sites containing microglia bound peroxidase-lectin conjugates were visualized by DAB-H2O2 substrate containing CO2 ions.

[2] = test system: astrocytes (GFAP immunoreactivity); experiment: GFAP immunohistochemistry of astrocytes in hippocampus 24 h after TMT; format: in vivo, mice
Description: as §1, §2

microglia = experiment: Lectin histochemistry for microglia in hippocampus 24 h after TMT; format: in vivo; settings: 24 h post-TMT, wild-type, APOE knockout and APOE4 mice
Description: as §1
as §2, with “Microglia cells were identified by lectin binding (Bandeiraea Simplicifolia BS-4, 1:10; Sigma Chemical Co.; St. Louis, Mo.) by the method of Streit and Kreutzberg (1987) using HIER. Sites containing microglia bound peroxidase-lectin conjugates were visualized by DAB-H2O2 substrate containing CO2 ions.” left out

[3] = test system: ICAM-1, iNOS, A20, Mac-1, EB22/5 and GFAP mRNA; experiment: RNase protection assay, host-response gene probe set, hippocampus; format: in vivo, mice; settings: 24 h; for mRNA levels for Mac-1, A20, and iNOS: any group of mice
Description: as §1
(§3) Based upon earlier studies with TMT exposure (Bruccoleri et al., 1998, 1999), Rnase protection assays were conducted at 24-h post-TMT. Multiprobe sets were used for simultaneous detection of mRNAs as previously described (Hobbs, 1993; Bruccoleri et al., 1999). The first set, provided by Dr. Iain Campbell (Scripps Research Institute, San Diego, Calif.), contained probes for intercellular adhesion molecule-1 (ICAM-1), inducible nitric oxide synthase (iNOS), an anti-apoptotic TNFα-inducible early response gene (A20), macrophase-1 antigen (Mac-1), a murine acute-phase response gene homologous to the α-1-antichymotrypsin gene (EB22/5), and GFAP as previously described (Campbell et al., 1994). The second set was purchased from Pharmingen (San Diego, Calif.) and contained probes for tumor necrosis factor-β (TNFβ) and -α (TNFα), interleukin-1α (IL-1α), macrophage inflammatory protein-1α (MIP-1α), and transforming growth factor-β1 (TGF-β1). Each probe set contained probes for L32 and GAPDH. A minimum of 4 animals per group was used in each experiment. Individual fragments were separated by 5% acrylamide/8 M urea sequencing gel electrophoresis and visualized by autoradiography (Hyperfilm-MP film; Amersham, Buckinghamshire, U.K.). Radioactivity in each fragment was visualized by phosphorimager (Molecular Dynamics, Sunnyvale, Calif.) and relative volume determined using Imagequant (Molecular Dynamics) and normalized relative to the corresponding L32 volume.
(§4) Subsequent independent group mean comparisons between each saline-injected genotype or between TMT and saline-injected mice, within each genotype, were conducted using individual one-way ANOVAs for each gene transcript. A statistical significance level was set at p<0.05.

[4] = test system: TNFβ, TNFα, IL-1α, MIP-1α and TGF-β1 mRNA; experiment: RNase protection assay, cytokine probe set, hippocampus; format: in vivo, mice; settings: for increase of MEP-1α mRNA levels: vs saline
Description: as §1, §3, §4

[5] = test system: TNFβ, TNFα, IL-1α, MIP-1α and TGF-β1 mRNA; experiment: RNase protection assay, cytokine probe set, cortex; format: in vivo, mice; settings: 24 h
Description: as §1, §3, §4
Given the genotype-specific effects in the hippocampus of 8-month-old mice following TMT, additional brain regions were examined. In the cortex, TMT exposure elevated mRNA levels for TNFα and TGF-β1 in the wild-type mice with no elevation seen in the APOE knockout or APOE4 mice (FIG. 7). MIP-1α mRNA levels in both wild-type and APOE4 mice were elevated by TMT with no elevation in APOE knockout mice (FIG. 7).

[6] = test system: TNFβ, TNFα, IL-1α, MIP-1α and TGF-β1 mRNA; experiment: RNase protection assay, cytokine probe set, cerebellum; format: in vivo; settings: 8-month-old mice, 24 h
Description: as §1
as §3, with “Individual fragments were separated by 5% acrylamide/8 M urea sequencing gel electrophoresis and visualized by autoradiography (Hyperfilm-MP film; Amersham, Buckinghamshire, U.K.).” left out, “volume. […]” for “volume.”

[7] = test system: wild-type, APOE knockout and APOE4 mice; experiment: Systemic toxicity (tremor, seizures, survival) after a single i.p. dose of TMT
[8] = 21-day-old wild-type and APOE knockout mice
[9] = 8-month-old APOE knockout mice, hippocampus, 24 h
[10] = 8-month-old, all animals, hippocampus, 24 h

Structure (SMILES): [CH3][Sn]([CH3])([CH3])[OH] [TMT, trimethyltin hydroxide]
- neuronal necrosis in dentate granule cells (FIG. 1) ([1]; TMT-exposed wild-type, APOE knockout and APOE4 mice, 2 mg/kg ip, 24 h): Severe neuronal necrosis
- neuronal cell death in the hippocampus (dentate granule cells) ([1]; wild-type mice, 24 h after TMT): neuronal cell death was evident
- neurons of the pyramidal cell layer ([1]; wild-type mice, 24 h after TMT): no indication of neuronal cell death
- astrocyte morphology (FIG. 2) ([2]; 24 h after TMT 2.0 mg/kg ip, compared with saline): thick cell bodies and processes characteristic of astrocyte reactivity
- GFAP immunoreactivity in astrocytes ([2]; APOE knockout and APOE4 mice, 24 h after TMT): slight increase in GFAP immunoreactivity
- GFAP immunostaining ([2]; wild-type mice, 24 h after TMT): little change
- reactive/activated microglia by lectin histochemistry (microglia): did not detect reactive/activated microglia
- EB22 mRNA levels ([3]; 8-month-old APOE knockout and APOE4 mice): elevation
- EB22 mRNA levels ([3]; 8-month-old wild-type mice): No elevation
- GFAP mRNA levels ([3]; 8-month-old, all groups of mice): elevation
- mRNA levels for Mac-1, A20, and iNOS ([3]; 8-month-old): not altered
- EB22 mRNA levels ([3]; 21-day-old APOE4 mice): no elevation
- EB22 mRNA levels [3, 8]: significant (p<0.05) elevation
- GFAP mRNA levels [3, 8]: significantly elevated
- ICAM-1 mRNA levels ([3]; 21-day-old, all mice, vs saline): slight but significant elevation
- mRNA levels for Mac-1, A20, and iNOS ([3]; 21-day-old): not altered
- increase of MEP-1α mRNA levels ([4]; 8-month-old APOE4 mice, hippocampus, 24 h): 3 fold
- elevation in MIP-1α mRNA compared to the response in wild-type mice ([4]; 8-month-old APOE knockout mice): less elevation
- TNFα mRNA level [4, 9]: distinct lack of elevation; also recorded: No elevation
- increase of MEP-1α mRNA levels [4, 9]: 1.3 fold
- TNFα mRNA levels ([4]; 8-month-old wild-type and APOE4 mice, hippocampus, 24 h): elevated
- increase of MEP-1α mRNA levels ([4]; 8-month-old wild-type mice, hippocampus, 24 h): 3.5 fold
- MIP-1α mRNA levels relative to saline-injected mice [4, 10]: significant (p<0.05) elevations
- mRNA levels for TNFβ, IL-1α, or TGF-β1 [4, 10]: No significant elevations
- IL-1α mRNA levels ([4]; 21-day-old APOE knockout and APOE4 mice, hippocampus, 24 h): elevated
- TNFα and TGF-β1 mRNA levels ([4]; 21-day-old wild-type and APOE knockout mice, hippocampus, 24 h): significantly elevated
- MIP-1α mRNA levels ([4]; 21-day-old, all mice, hippocampus, 24 h): elevations
- induction of TNFα, IL-1α, and MIP-1α by TMT ([4]; APOE knockout mice (discussion)): lack of an induction
- induction of TGF-β1 ([4]; APOE knockout mice or those containing the E4 allele, following TMT (discussion)): lack of an induction
- MIP-1α mRNA levels ([5]; 8-month-old APOE knockout mice): no elevation
- mRNA levels for TNFα and TGF-β1 ([5]; 8-month-old APOE knockout or APOE4 mice): no elevation
- MIP-1α mRNA levels ([5]; 8-month-old wild-type and APOE4 mice): elevated
- mRNA levels for TNFα and TGF-β1 ([5]; 8-month-old wild-type mice): elevated
- mRNA levels for TNFβ, TNFα, IL-1α, MIP-1α, and TGF-β1 [6]: no effect
- decrease in survival rate ([7]; APOE4 mice, 8 months of age, compared to APOE knockout and wild-type): ~40%
- decrease in survival rate ([7]; APOE4 mice, 21 days of age, 2.0 mg/kg i.p.): 20%
- decrease in survival rate ([7]; APOE knockout mice, 21 days of age, 2.0 mg/kg i.p.): 10%
- aggressiveness or seizures ([7]; any of the mice exposed to TMT): No signs of aggressiveness or seizures
